We go through eight compounds from patent publication US11713344B2 (DONG-A ST CO., LTD., priority 2017, dated 2023).

SMILES strings stand for the structures.

In one experiment the target is Human GLP-1 receptors (Homo sapiens, UniProt P43220). The experiment in a line: GLP-1 receptor activation assay (CRE-luciferase reporter, CHO-K1).
The next experiment deals with Human glucagon receptors (Homo sapiens, UniProt P47871). The experiment in a line: Glucagon receptor activation assay (CRE-luciferase reporter, CHO-K1).
Chain of Human glucagon receptors (P47871 26-477): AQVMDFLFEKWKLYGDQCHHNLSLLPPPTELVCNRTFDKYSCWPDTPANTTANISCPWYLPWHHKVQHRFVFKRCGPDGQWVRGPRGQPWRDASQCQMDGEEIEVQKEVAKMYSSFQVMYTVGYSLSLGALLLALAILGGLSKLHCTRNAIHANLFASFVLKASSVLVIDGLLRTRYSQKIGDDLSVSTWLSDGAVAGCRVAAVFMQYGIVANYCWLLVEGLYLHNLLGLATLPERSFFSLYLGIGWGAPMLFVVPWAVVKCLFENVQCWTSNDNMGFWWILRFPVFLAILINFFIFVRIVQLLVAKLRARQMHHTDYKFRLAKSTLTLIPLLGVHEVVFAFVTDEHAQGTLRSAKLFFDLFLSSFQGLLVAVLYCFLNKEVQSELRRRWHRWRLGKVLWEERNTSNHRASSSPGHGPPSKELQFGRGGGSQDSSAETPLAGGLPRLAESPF

Chain of Human GLP-1 receptors (P43220 24-463): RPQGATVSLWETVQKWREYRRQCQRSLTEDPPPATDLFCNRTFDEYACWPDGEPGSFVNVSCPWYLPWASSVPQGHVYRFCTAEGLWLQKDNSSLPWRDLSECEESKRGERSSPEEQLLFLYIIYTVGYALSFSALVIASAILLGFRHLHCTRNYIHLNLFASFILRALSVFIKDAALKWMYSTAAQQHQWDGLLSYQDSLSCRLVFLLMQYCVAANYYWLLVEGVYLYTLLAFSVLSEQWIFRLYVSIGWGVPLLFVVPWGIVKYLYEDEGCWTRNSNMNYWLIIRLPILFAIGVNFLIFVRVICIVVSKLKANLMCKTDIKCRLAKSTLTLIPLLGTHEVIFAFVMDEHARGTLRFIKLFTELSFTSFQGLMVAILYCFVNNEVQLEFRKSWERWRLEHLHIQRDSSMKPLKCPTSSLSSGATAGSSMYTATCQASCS

What is called EC50 is the concentration needed to bring the measured effect to its halfway point. `CCCCCCCCCCCCCCCCCC(=O)N[C@@H](CCC(=O)NCCOCCOCC(=O)NCCOCCOCC(=O)NCCCC[C@H](NC(=O)[C@H](CC(=O)O)NC(=O)[C@H](CO)NC(=O)[C@@H](NC(=O)[C@H](Cc1ccccc1)NC(=O)[C@@H](NC(=O)CNC(=O)[C@H](CCC(N)=O)NC(=O)C(C)(C)NC(=O)[C@@H](N)Cc1c[nH]cn1)[C@@H](C)O)[C@@H](C)O)C(=O)N[C@@H](CO)C(=O)N[C@@H](CCCCN)C(=O)N[C@@H](Cc1ccc(O)cc1)C(=O)N[C@@H](CC(C)C)C(=O)N[C@@H](CC(=O)O)C(=O)N[C@H]1CSCc2cccc(c2)CSC[C@@H](C(=O)N[C@@H](CC(=O)O)C(=O)N[C@@H](Cc2ccccc2)C(=O)N[C@H](C(=O)N[C@@H](CCC(N)=O)C(=O)N[C@@H](Cc2c[nH]c3ccccc23)C(=O)N[C@@H](CC(C)C)C(=O)N[C@@H](CCSC)C(=O)N[C@@H](CC(N)=O)C(=O)N[C@H](C(=O)N[C@@H](CCCCN)C(=O)O)[C@@H](C)O)C(C)C)NC(=O)[C@H](C)NC(=O)[C@H](CCCNC(=N)N)NC(=O)[C@H](CCCNC(=N)N)NC1=O)C(=O)O` [Compound 22, H-HAibQGTFTSDZSKYLDCRRACDFVQWLMNTK-OH]: the EC50 at Human GLP-1 receptors and at Human glucagon receptors was less than 0.01 nM in each case.

As for `CCCCCCCCCCCCCCCCCC(=O)N[C@@H](CCC(=O)NCCOCCOCC(=O)NCCOCCOCC(=O)NCCOCCOCC(=O)NCCOCCOCC(=O)NCCCC[C@H](NC(=O)[C@H](CC(=O)O)NC(=O)[C@H](CO)NC(=O)[C@@H](NC(=O)[C@H](Cc1ccccc1)NC(=O)[C@@H](NC(=O)CNC(=O)[C@H](CCC(N)=O)NC(=O)C(C)(C)NC(=O)[C@@H](N)Cc1c[nH]cn1)[C@@H](C)O)[C@@H](C)O)C(=O)N[C@@H](CO)C(=O)N[C@@H](CCCCN)C(=O)N[C@@H](Cc1ccc(O)cc1)C(=O)N[C@@H](CC(C)C)C(=O)N[C@@H](CC(=O)O)C(=O)N[C@H]1CCC(=O)NCCCC[C@@H](C(=O)N[C@@H](CC(=O)O)C(=O)N[C@@H](Cc2ccccc2)C(=O)N[C@H](C(=O)N[C@@H](CCC(N)=O)C(=O)N[C@@H](Cc2c[nH]c3ccccc23)C(=O)N[C@@H](CC(C)C)C(=O)N[C@@H](CCSC)C(=O)N[C@@H](CC(N)=O)C(=O)N[C@H](C(=O)N[C@@H](CCCCN)C(N)=O)[C@@H](C)O)C(C)C)NC(=O)[C@H](C)NC(=O)[C@H](CCCNC(=N)N)NC(=O)[C@H](CCCNC(=N)N)NC1=O)C(=O)O` [Compound 24, H-HAibQGTFTSDZSKYLDERRAKDFVQWLMNTK-NH2], the values for the EC50 on Human GLP-1 receptors and at Human glucagon receptors were less than 0.01 nM and 0.01 to 0.1 nM, respectively.

Consider `CCCCCCCCCCCCCCCCCC(=O)N[C@@H](CCC(=O)NCCOCCOCC(=O)NCCOCCOCC(=O)NCCOCCOCC(=O)NCCOCCOCC(=O)NCCCC[C@H](NC(=O)[C@H](CC(=O)O)NC(=O)[C@H](CO)NC(=O)[C@@H](NC(=O)[C@H](Cc1ccccc1)NC(=O)[C@@H](NC(=O)CNC(=O)[C@H](CCC(N)=O)NC(=O)C(C)(C)NC(=O)[C@@H](N)Cc1c[nH]cn1)[C@@H](C)O)[C@@H](C)O)C(=O)N[C@@H](CO)C(=O)N[C@@H](CCCCN)C(=O)N[C@@H](Cc1ccc(O)cc1)C(=O)N[C@@H](CC(C)C)C(=O)N[C@@H](CC(=O)O)C(=O)N[C@H]1CCC(=O)NCCCC[C@@H](C(=O)N[C@@H](CC(=O)O)C(=O)N[C@@H](Cc2ccccc2)C(=O)N[C@H](C(=O)N[C@@H](CCC(N)=O)C(=O)N[C@@H](Cc2c[nH]c3ccccc23)C(=O)N[C@@H](CC(C)C)C(=O)N[C@@H](CCSC)C(=O)N[C@@H](CC(N)=O)C(=O)N[C@H](C(=O)N[C@@H](CCCCN)C(=O)O)[C@@H](C)O)C(C)C)NC(=O)[C@H](C)NC(=O)[C@H](CCCNC(=N)N)NC(=O)[C@H](CCCNC(=N)N)NC1=O)C(=O)O` [Compound 25, H-HAibQGTFTSDZSKYLDERRAKDFVQWLMNTK-OH], for which the EC50 on Human GLP-1 receptors and on Human glucagon receptors was less than 0.01 nM each time.

Take `CCCCCCCCCCCCCCCCCC(=O)N[C@@H](CCC(=O)NCCOCCOCC(=O)NCCOCCOCC(=O)NCCCC[C@H](NC(=O)[C@H](CC(=O)O)NC(=O)[C@H](CO)NC(=O)[C@@H](NC(=O)[C@H](Cc1ccccc1)NC(=O)[C@@H](NC(=O)CNC(=O)[C@H](CCC(N)=O)NC(=O)C(C)(C)NC(=O)[C@@H](N)Cc1c[nH]cn1)[C@@H](C)O)[C@@H](C)O)C(=O)N[C@@H](CO)C(=O)N[C@@H](CCCCN)C(=O)N[C@@H](Cc1ccc(O)cc1)C(=O)N[C@@H](CC(C)C)C(=O)N[C@@H](CC(=O)O)C(=O)N[C@H]1CC(=O)NCCCC[C@@H](C(=O)N[C@@H](CC(=O)O)C(=O)N[C@@H](Cc2ccccc2)C(=O)N[C@H](C(=O)N[C@@H](CCC(N)=O)C(=O)N[C@@H](Cc2c[nH]c3ccccc23)C(=O)N[C@@H](CC(C)C)C(=O)N[C@@H](CCSC)C(=O)N[C@@H](CC(N)=O)C(=O)N[C@H](C(=O)N[C@@H](CCCCN)C(=O)O)[C@@H](C)O)C(C)C)NC(=O)[C@H](C)NC(=O)[C@H](CCCNC(=N)N)NC(=O)[C@H](CCCNC(=N)N)NC1=O)C(=O)O` [Compound 26, H-HAibQGTFTSDZSKYLDDRRAKDFVQWLMNTK-OH]: the EC50 at Human GLP-1 receptors and at Human glucagon receptors was less than 0.01 nM each time.

On to `CCCCCCCCCCCCCCCCCC(=O)N[C@@H](CCC(=O)NCCOCCOCC(=O)NCCOCCOCC(=O)NCCCC[C@H](NC(=O)[C@H](CC(=O)O)NC(=O)[C@H](CO)NC(=O)[C@@H](NC(=O)[C@H](Cc1ccccc1)NC(=O)[C@@H](NC(=O)CNC(=O)[C@H](CCC(N)=O)NC(=O)C(C)(C)NC(=O)[C@@H](N)Cc1c[nH]cn1)[C@@H](C)O)[C@@H](C)O)C(=O)N[C@@H](CO)C(=O)N[C@@H](CCCCN)C(=O)N[C@@H](Cc1ccc(O)cc1)C(=O)N[C@@H](CC(C)C)C(=O)N[C@@H](CC(=O)O)C(=O)N[C@H]1CCCCNC(=O)C[C@@H](C(=O)N[C@@H](CC(=O)O)C(=O)N[C@@H](Cc2ccccc2)C(=O)N[C@H](C(=O)N[C@@H](CCC(N)=O)C(=O)N[C@@H](Cc2c[nH]c3ccccc23)C(=O)N[C@@H](CC(C)C)C(=O)N[C@@H](CCSC)C(=O)N[C@@H](CC(N)=O)C(=O)N[C@H](C(=O)N[C@@H](CCCCN)C(=O)O)[C@@H](C)O)C(C)C)NC(=O)[C@H](C)NC(=O)[C@H](CCCNC(=N)N)NC(=O)[C@H](CCCNC(=N)N)NC1=O)C(=O)O` [Compound 27, H-HAibQGTFTSDZSKYLDKRRADDFVQWLMNTK-OH], for which the EC50 on Human GLP-1 receptors and at Human glucagon receptors was less than 0.01 nM each time.

As for `CCCCCCCCCCCCCCCCCC(=O)N[C@@H](CCC(=O)NCCOCCOCC(=O)NCCOCCOCC(=O)NCCCC[C@H](NC(=O)[C@H](CC(=O)O)NC(=O)[C@H](CO)NC(=O)[C@@H](NC(=O)[C@H](Cc1ccccc1)NC(=O)[C@@H](NC(=O)CNC(=O)[C@H](CCC(N)=O)NC(=O)C(C)(C)NC(=O)[C@@H](N)Cc1c[nH]cn1)[C@@H](C)O)[C@@H](C)O)C(=O)N[C@@H](CO)C(=O)N[C@@H](CCCCN)C(=O)N[C@@H](Cc1ccc(O)cc1)C(=O)N[C@@H](CC(C)C)C(=O)N[C@@H](CC(=O)O)C(=O)N[C@H]1CSSC[C@@H](C(=O)N[C@@H](CC(=O)O)C(=O)N[C@@H](Cc2ccccc2)C(=O)N[C@H](C(=O)N[C@@H](CCC(N)=O)C(=O)N[C@@H](Cc2c[nH]c3ccccc23)C(=O)N[C@@H](CC(C)C)C(=O)N[C@@H](CCSC)C(=O)N[C@@H](CC(N)=O)C(=O)N[C@H](C(=O)N[C@@H](CCCCN)C(=O)O)[C@@H](C)O)C(C)C)NC(=O)[C@H](C)NC(=O)[C@H](CCCNC(=N)N)NC(=O)[C@H](CCCNC(=N)N)NC1=O)C(=O)O` [Compound 28, H-HAibQGTFTSDZSKYLDCRRACDFVQWLMNTK-OH], the EC50 at Human GLP-1 receptors and on Human glucagon receptors was 0.1 to 1 nM in each case.

For `CCCCCCCCCCCCCCCCCC(=O)N[C@@H](CCC(=O)NCCOCCOCC(=O)NCCOCCOCC(=O)NCCCC[C@H](NC(=O)[C@H](CC(=O)O)NC(=O)[C@H](CO)NC(=O)[C@@H](NC(=O)[C@H](Cc1ccccc1)NC(=O)[C@@H](NC(=O)CNC(=O)[C@H](CCC(N)=O)NC(=O)C(C)(C)NC(=O)[C@@H](N)Cc1c[nH]cn1)[C@@H](C)O)[C@@H](C)O)C(=O)N[C@@H](CO)C(=O)N[C@@H](CCCCN)C(=O)N[C@@H](Cc1ccc(O)cc1)C(=O)N[C@@H](CC(C)C)C(=O)N[C@@H](CC(=O)O)C(=O)N[C@H]1CCC(=O)NCCNC(=O)CC[C@@H](C(=O)N[C@@H](CC(=O)O)C(=O)N[C@@H](Cc2ccccc2)C(=O)N[C@H](C(=O)N[C@@H](CCC(N)=O)C(=O)N[C@@H](Cc2c[nH]c3ccccc23)C(=O)N[C@@H](CC(C)C)C(=O)N[C@@H](CCSC)C(=O)N[C@@H](CC(N)=O)C(=O)N[C@H](C(=O)N[C@@H](CCCCN)C(=O)O)[C@@H](C)O)C(C)C)NC(=O)[C@H](C)NC(=O)[C@H](CCCNC(=N)N)NC(=O)[C@H](CCCNC(=N)N)NC1=O)C(=O)O` [Compound 30, H-HAibQGTFTSDZSKYLDERRAEDFVQWLMNTK-OH], the EC50 at Human GLP-1 receptors and at Human glucagon receptors was less than 0.01 nM in each case.

On to `CCCCCCCCCCCCCCCCCC(=O)N[C@@H](CCC(=O)NCCOCCOCC(=O)NCCOCCOCC(=O)NCCCC[C@H](NC(=O)[C@H](CC(=O)O)NC(=O)[C@H](CO)NC(=O)[C@@H](NC(=O)[C@H](Cc1ccccc1)NC(=O)[C@@H](NC(=O)CNC(=O)[C@H](CCC(N)=O)NC(=O)C(C)(C)NC(=O)[C@@H](N)Cc1c[nH]cn1)[C@@H](C)O)[C@@H](C)O)C(=O)N[C@@H](CO)C(=O)N[C@@H](CCCCN)C(=O)N[C@@H](Cc1ccc(O)cc1)C(=O)N[C@@H](CC(C)C)C(=O)N[C@@H](CC(=O)O)C(=O)N[C@H]1CCCCNC(=O)c2ccc(cc2)C(=O)NCCCC[C@@H](C(=O)N[C@@H](CC(=O)O)C(=O)N[C@@H](Cc2ccccc2)C(=O)N[C@H](C(=O)N[C@@H](CCC(N)=O)C(=O)N[C@@H](Cc2c[nH]c3ccccc23)C(=O)N[C@@H](CC(C)C)C(=O)N[C@@H](CCSC)C(=O)N[C@@H](CC(N)=O)C(=O)N[C@H](C(=O)N[C@@H](CCCCN)C(=O)O)[C@@H](C)O)C(C)C)NC(=O)[C@H](C)NC(=O)[C@H](CCCNC(=N)N)NC(=O)[C@H](CCCNC(=N)N)NC1=O)C(=O)O` [Compound 31, H-HAibQGTFTSDZSKYLDKRRAKDFVQWLMNTK-OH], for which the EC50 at Human GLP-1 receptors and on Human glucagon receptors was less than 0.01 nM each time.
